# Measurements as given in US20100311643A1, “USE OF GLP-1 AS A THERAPEUTIC AGENT” (priority 2007, published 2010).
# Test system: drug-resistant Mycobacterium tuberculosis
# Conditions: drug-resistant Mycobacterium tuberculosis growth; peptide 10 micrograms per ml; seven days
compound,measurement,value
CC[C@H](C)[C@H](NC(=O)[C@H](Cc1ccccc1)NC(=O)[C@H](CCC(=O)O)NC(=O)[C@H](CCCCN)NC(=O)[C@H](C)NC(=O)[C@H](C)NC(=O)[C@H](CCC(N)=O)NC(=O)CNC(=O)[C@H](CCC(=O)O)NC(=O)[C@H](CC(C)C)NC(=O)[C@H](Cc1ccc(O)cc1)NC(=O)[C@H](CO)NC(=O)[C@H](CO)NC(=O)[C@@H](NC(=O)[C@H](CC(=O)O)NC(=O)[C@H](CO)NC(=O)[C@@H](NC(=O)[C@H](Cc1ccccc1)NC(=O)[C@@H](NC(=O)CNC(=O)[C@H](CCC(=O)O)NC(=O)[C@H](C)NC(=O)[C@H](Cc1c[nH]cn1)NC(=O)[C@H](CCCNC(=N)N)NC(=O)[C@H](CCC(=O)O)NC(=O)[C@H](Cc1ccccc1)NC(=O)[C@H](CCC(=O)O)NC(=O)[C@H](CC(=O)O)NC(=O)[C@@H](N)Cc1c[nH]cn1)[C@@H](C)O)[C@@H](C)O)C(C)C)C(=O)N[C@@H](C)C(=O)N[C@@H](Cc1c[nH]c2ccccc12)C(=O)N[C@@H](CC(C)C)C(=O)N[C@H](C(=O)N[C@@H](CCCCN)C(=O)NCC(=O)N[C@@H](CCCNC(=N)N)C(=O)NCC(=O)O)C(C)C [GLP-1],% inhibition,0.0%
